Experimental findings from US20210156868A1, “COMPOSITIONS AND METHODS FOR DETECTING ALBUMIN” (Tournament BioVenture LLC, priority 2019, published 2021) are described below.

Data set [1] relates to Ca^2+ dependent PLA2. As to conditions: 5 mM in the assay buffer.
Data set [2] deals with albumin (Homo sapiens, UniProt P02768). In words: Effects of solvent and additives on pseudo-lipase activity of albumin (FIG. 13). It counts as biochemical. The source says:
Dimethyl sulfoxide (DMSO), EDTA and Tween-20 had been used to determine the tolerable concentration of organic solvent.

A short description of data set [3]: Solubility in water. In kind it is physicochemical.
The test system of data set [4] is non-albumin esterase activity (PLA2 activity in human serum, associated with LDL or HDL). Briefly: Inhibition of non-albumin esterase (PLA2) activity with 14:0 NPS-PC as probe (FIG. 4). It counts as biochemical. The conditions noted are these: for sensitivity of non-albumin (LDL/HDL, PLA2) esterase activity compared to pseudo esterase activity of albumin: human serum, 14:0 NPS-PC probe. How it is done:
The reaction was started by the addition of 110 μl of TBS reaction buffer (10 mM Tris-HCl, 150 mM NaCl, pH 7.4) containing […] 14:0 NPS-PC and 5 mM EDTA to 20 μl of HSA solution in a well of a 96-well plate. The reactions were followed at wavelength 405 nm (absorbance) in a SPECTRAmax M5 plate reader.
As shown in EXAMPLE 1, using 14:0 NPS-PC as probe also identified non-albumin esterase activity, i.e. PLA2 activity in human serum, which is mainly associated with HDL and LDL. […] Pefabloc at 15-20 mM (final concentration) can eliminate all non-albumin esterase activity but maintain >90% of albumin esterase activity when assayed with 1.5 mM 14:0 NPS-PC at pH 7.4.

Data set [5] concerns the target HSA pseudo esterase (Homo sapiens, UniProt P02768). Briefly: Michaelis-Menten kinetics of HSA pseudo esterase (FIG. 3). In kind it is biochemical. The conditions noted are these: 14:0 NPS-PC as probe.
Data set [6] has as its system human serum non-HSA esterase activity. In words: Inactivation of non-HSA esterase activity in mix of 20 human sera (FIG. 6, FIG. 7). In kind it is biochemical. The conditions noted are these: 1 mM Pefabloc SC, 24° C., hydrochloride. How it is done:
When human serum was incubated with 1 mM Pefabloc, the non-HSA esterase activity can be abolished in about 10 minutes.

For data set [7], the target named is HSA pseudo esterase activity (Homo sapiens, UniProt P02768). As to conditions: 2 mM Pefabloc SC incubation; HSA 44 mg/ml in TBS, pH 7.4; hydrochloride.
For data set [8], the system named is non-HSA esterase activity associated with HDL. In words: Inactivation of HDL-associated esterase activity on incubation with Pefabloc SC (FIG. 5). It counts as biochemical, human. The conditions noted are these: 2 mM Pefabloc SC.

“Also recorded” adds a separate entry of the source.

Chain of HSA pseudo esterase activity (P02768 25-609): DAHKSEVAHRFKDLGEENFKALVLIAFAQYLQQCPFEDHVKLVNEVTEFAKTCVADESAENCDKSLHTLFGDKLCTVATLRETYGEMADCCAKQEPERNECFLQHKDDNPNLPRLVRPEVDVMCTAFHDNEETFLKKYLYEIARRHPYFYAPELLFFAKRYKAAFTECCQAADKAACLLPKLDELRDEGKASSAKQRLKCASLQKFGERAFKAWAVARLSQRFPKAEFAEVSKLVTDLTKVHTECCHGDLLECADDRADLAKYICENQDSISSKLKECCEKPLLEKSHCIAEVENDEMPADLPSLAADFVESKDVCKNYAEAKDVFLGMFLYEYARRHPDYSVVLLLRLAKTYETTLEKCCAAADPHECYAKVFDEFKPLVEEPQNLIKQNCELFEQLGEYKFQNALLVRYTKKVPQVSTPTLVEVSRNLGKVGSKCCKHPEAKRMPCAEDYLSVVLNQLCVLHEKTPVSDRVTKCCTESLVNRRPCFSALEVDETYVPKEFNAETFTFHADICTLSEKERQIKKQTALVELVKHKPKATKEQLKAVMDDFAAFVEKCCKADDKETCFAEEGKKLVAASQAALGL
Chain of albumin (P02768 25-609): as above
Chain of HSA pseudo esterase (P02768 25-609): as above

Take `O=C(O)CN(CCN(CC(=O)O)CC(=O)O)CC(=O)O` [EDTA]: the “activity of Ca^2+ dependent PLA2 towards 14:0 NPS-PC” value in data set [1] was “suppresses”.
In the case of `C[S+](C)[O-]` [DMSO, Dimethyl sulfoxide], the “effect on the assay of albumin” value in data set [2] is on record as “does not have effects”.
As for `CCN(CC)CCN(Cc1ccc(-c2ccc(C(F)(F)F)cc2)cc1)C(=O)Cn1c(SCc2ccc(F)cc2)nc(=O)c2c1CCC2` [darapladib], the solubility in water result in data set [3] is “insoluble in water”.
`O=S(=O)(F)Cc1ccccc1` [PMSF, phenylmethylsulfonyl fluoride]: in data set [4], the “sensitivity of non-albumin (LDL/HDL, PLA2) esterase activity compared to pseudo esterase activity of albumin” value was “much more sensitive”.
With `CCCCCCCCCCCCCC(=O)OC[C@H](COP(=O)([O-])OCC[N+](C)(C)C)OC(=O)CCC(=O)Oc1ccc([N+](=O)[O-])cc1` [14:0 NPS-PC, 1-myristoyl-2-(4-nitrophenylsuccinyl)-sn-glycero-3-phosphocholine], in data set [5], the “Km in the pseudo esterase reaction of HSA” value is listed as “relative low Km”.
On to `Cl.NCCc1ccc(S(=O)(=O)F)cc1` [Pefabloc SC, 4-(2-aminoethyl)benzenesulfonyl fluoride hydrochloride], for which the “incubation time to complete inactivation of human serum non-HSA esterase activity” value is given as “about 15 min” in data set [6] and “about 10 min” in data set [6] (listed as Pefabloc). In data set [7], the “inactivation of HSA pseudo esterase activity” value is reported as “No inactivation; also recorded: no activity loss”. In addition, the “sensitivity of non-albumin (LDL/HDL, PLA2) esterase activity compared to pseudo esterase activity of albumin” value in data set [4] is given as “much more sensitive”. Further, in data set [4] (inhibitor 15-20 mM final concentration, 1.5 mM 14:0 NPS-PC, pH 7.4), the non-albumin esterase activity result was “eliminate all”. Further, in data set [8] (6 hr of incubation, HDL 2.5 mg/ml of cholesterol), the “non-HSA esterase activity associated with HDL depleted” value is given as “About 80%”. Also, the “incubation time to complete inactivation of HDL-associated esterase activity” value in data set [8] (purified HDL) was in the range of 6 to 10 h.
